Experimental data reported in the NIST ThermoML archive (doi:10.1021/je7003758).
Numbers after ± are expanded uncertainties.

Assay: xn = mol fraction of the nth substance listed
Conditions: 298.15 K, Liquid

ClCCCCCCCl [1,6-dichlorohexane] + CN1CCCC1=O
mass density [kg/m3]
Conditions	x2 = 0.1182	x2 = 0.2016	x2 = 0.3079	x2 = 0.4114	x2 = 0.5049	x2 = 0.6008	x2 = 0.7023	x2 = 0.8009	x2 = 0.8972
100 kPa	1060.7 ± 1.2	1058.4 ± 1.1	1055.4 ± 1	1052 ± 0.8	1049 ± 0.7	1045.6 ± 0.7	1041.6 ± 0.6	1037.5 ± 0.5	1033.1 ± 0.5
500 kPa	1060.9 ± 1.2	1058.7 ± 1.1	1055.6 ± 1	1052.3 ± 0.8	1049.2 ± 0.7	1045.8 ± 0.7	1041.8 ± 0.6	1037.7 ± 0.5	1033.4 ± 0.5
1000 kPa	1061.3 ± 1.2	1059.1 ± 1.1	1056 ± 1	1052.6 ± 0.9	1049.5 ± 0.8	1046.1 ± 0.7	1042.1 ± 0.6	1038 ± 0.5	1033.6 ± 0.5
1500 kPa	1061.6 ± 1.2	1059.4 ± 1.1	1056.3 ± 1	1052.9 ± 0.9	1049.8 ± 0.8	1046.4 ± 0.7	1042.4 ± 0.6	1038.3 ± 0.5	1033.9 ± 0.5
2000 kPa	1062 ± 1.2	1059.7 ± 1.1	1056.6 ± 1	1053.3 ± 0.9	1050.1 ± 0.8	1046.7 ± 0.7	1042.7 ± 0.6	1038.6 ± 0.5	1034.2 ± 0.5
2500 kPa	1062.3 ± 1.2	1060 ± 1.1	1056.9 ± 1	1053.6 ± 0.9	1050.5 ± 0.8	1047 ± 0.7	1043 ± 0.6	1038.9 ± 0.5	1034.4 ± 0.5
3000 kPa	1062.6 ± 1.3	1060.4 ± 1.1	1057.3 ± 1	1053.9 ± 0.9	1050.8 ± 0.8	1047.3 ± 0.7	1043.3 ± 0.6	1039.1 ± 0.5	1034.7 ± 0.5
3500 kPa	1063 ± 1.3	1060.8 ± 1.2	1057.6 ± 1	1054.3 ± 0.9	1051.1 ± 0.8	1047.6 ± 0.7	1043.6 ± 0.6	1039.4 ± 0.6	1035 ± 0.5
4000 kPa	1063.3 ± 1.3	1061.1 ± 1.2	1057.9 ± 1	1054.6 ± 0.9	1051.4 ± 0.8	1047.9 ± 0.7	1043.9 ± 0.6	1039.7 ± 0.6	1035.3 ± 0.5
4500 kPa	1063.7 ± 1.3	1061.4 ± 1.2	1058.3 ± 1	1054.9 ± 0.9	1051.7 ± 0.8	1048.2 ± 0.7	1044.2 ± 0.6	1040 ± 0.6	1035.5 ± 0.5
5000 kPa	1064 ± 1.3	1061.8 ± 1.2	1058.6 ± 1.1	1055.2 ± 0.9	1052 ± 0.8	1048.5 ± 0.7	1044.4 ± 0.7	1040.3 ± 0.6	1035.8 ± 0.5
5500 kPa	1064.4 ± 1.3	1062.1 ± 1.2	1058.9 ± 1.1	1055.5 ± 0.9	1052.4 ± 0.8	1048.9 ± 0.7	1044.7 ± 0.7	1040.5 ± 0.6	1036.1 ± 0.5
5900 kPa	–	–	–	–	–	1049.2 ± 0.8	–	–	–
6000 kPa	1064.7 ± 1.3	1062.4 ± 1.2	1059.4 ± 1.1	1055.8 ± 1	1052.7 ± 0.9	–	1045 ± 0.7	1040.8 ± 0.6	1036.4 ± 0.5
6500 kPa	1065 ± 1.3	1062.8 ± 1.2	1059.6 ± 1.1	1056.1 ± 1	1053 ± 0.9	1049.4 ± 0.8	1045.3 ± 0.7	1041.1 ± 0.6	1036.6 ± 0.5
7000 kPa	1065.4 ± 1.4	1063.1 ± 1.2	1059.9 ± 1.1	1056.5 ± 1	1053.3 ± 0.9	1049.7 ± 0.8	1045.6 ± 0.7	1041.4 ± 0.6	1036.9 ± 0.5
7500 kPa	1065.7 ± 1.4	1063.5 ± 1.2	1060.2 ± 1.1	–	1053.6 ± 0.9	1050 ± 0.8	1045.9 ± 0.7	1041.7 ± 0.6	1037.2 ± 0.5
7600 kPa	–	–	–	1056.7 ± 1	–	–	–	–	–
8000 kPa	1066.1 ± 1.4	1063.7 ± 1.3	1060.5 ± 1.1	1057.1 ± 1	1054 ± 0.9	1050.3 ± 0.8	1046.2 ± 0.7	1041.9 ± 0.6	1037.4 ± 0.6
8500 kPa	1066.5 ± 1.4	1064 ± 1.3	1060.8 ± 1.1	1057.4 ± 1	1054.2 ± 0.9	1050.6 ± 0.8	1046.5 ± 0.7	1042.2 ± 0.6	1037.8 ± 0.6
8900 kPa	1066.7 ± 1.4	–	–	–	–	–	–	–	–
9000 kPa	–	1064.4 ± 1.3	1061.2 ± 1.1	1057.7 ± 1	1054.5 ± 0.9	1050.9 ± 0.8	1046.8 ± 0.7	1042.5 ± 0.6	1038 ± 0.6
9500 kPa	1067 ± 1.4	1064.8 ± 1.3	1061.5 ± 1.2	1058 ± 1	1054.9 ± 0.9	1051.2 ± 0.8	1047.1 ± 0.7	1042.8 ± 0.6	1038.2 ± 0.6
10000 kPa	1067.4 ± 1.4	1065.2 ± 1.3	1061.9 ± 1.2	1058.4 ± 1	1055.2 ± 0.9	1051.6 ± 0.8	1047.4 ± 0.7	1043.1 ± 0.7	1038.6 ± 0.6
10500 kPa	1067.8 ± 1.4	1065.4 ± 1.3	1062.2 ± 1.2	1058.7 ± 1	1055.6 ± 0.9	1051.9 ± 0.8	1047.7 ± 0.7	1043.4 ± 0.7	1038.8 ± 0.6
11000 kPa	1068.1 ± 1.5	1065.8 ± 1.3	1062.5 ± 1.2	1059 ± 1.1	1055.9 ± 1	1052.2 ± 0.9	1048 ± 0.8	1043.6 ± 0.7	1039.1 ± 0.6
11500 kPa	1068.4 ± 1.5	1066.1 ± 1.3	1062.8 ± 1.2	1059.3 ± 1.1	1056.2 ± 1	1052.4 ± 0.9	1048.2 ± 0.8	1044 ± 0.7	1039.3 ± 0.6
12000 kPa	1068.8 ± 1.5	1066.4 ± 1.4	1063.1 ± 1.2	1059.6 ± 1.1	1056.4 ± 1	1052.7 ± 0.9	1048.5 ± 0.8	1044.2 ± 0.7	1039.6 ± 0.6
12500 kPa	1069.1 ± 1.5	1066.7 ± 1.4	1063.5 ± 1.2	1059.9 ± 1.1	1056.7 ± 1	1053 ± 0.9	1048.8 ± 0.8	1044.5 ± 0.7	1039.8 ± 0.6
13000 kPa	1069.4 ± 1.5	1067 ± 1.4	1063.8 ± 1.2	1060.3 ± 1.1	1057 ± 1	1053.3 ± 0.9	1049.2 ± 0.8	1044.8 ± 0.7	1040.1 ± 0.6
13400 kPa	–	–	–	–	–	–	1049.5 ± 0.8	–	–
13500 kPa	1069.7 ± 1.5	1067.4 ± 1.4	1064.1 ± 1.3	1060.6 ± 1.1	1057.3 ± 1	1053.6 ± 0.9	–	1045.1 ± 0.7	1040.4 ± 0.6
13900 kPa	–	–	–	–	1057.6 ± 1	–	–	–	–
14000 kPa	1070 ± 1.5	1067.6 ± 1.4	1064.4 ± 1.3	1060.9 ± 1.1	–	1053.9 ± 0.9	1049.7 ± 0.8	1045.3 ± 0.7	1040.6 ± 0.6
14400 kPa	–	–	–	–	–	–	–	1045.6 ± 0.7	–
14500 kPa	1070.4 ± 1.5	1068 ± 1.4	1064.7 ± 1.3	1061.2 ± 1.1	1057.9 ± 1	1054.2 ± 0.9	1050 ± 0.8	–	1041 ± 0.7
15000 kPa	1070.7 ± 1.6	1068.3 ± 1.4	1065 ± 1.3	1061.5 ± 1.2	1058.2 ± 1	1054.5 ± 0.9	1050.3 ± 0.8	1045.9 ± 0.7	1041.2 ± 0.7
15400 kPa	–	–	–	1061.8 ± 1.2	–	–	–	–	–
15500 kPa	1071 ± 1.6	1068.6 ± 1.5	1065.4 ± 1.3	–	1058.5 ± 1.1	1054.8 ± 0.9	1050.6 ± 0.8	1046.2 ± 0.8	1041.4 ± 0.7
16000 kPa	1071.4 ± 1.6	1069 ± 1.5	1065.6 ± 1.3	1062 ± 1.2	1058.8 ± 1.1	1055.1 ± 1	1050.8 ± 0.9	1046.4 ± 0.8	1041.7 ± 0.7
16500 kPa	1071.7 ± 1.6	1069.2 ± 1.5	1065.9 ± 1.3	1062.4 ± 1.2	1059.1 ± 1.1	1055.4 ± 1	1051 ± 0.9	1046.6 ± 0.8	1041.9 ± 0.7
16900 kPa	–	–	1066.2 ± 1.3	–	–	–	–	–	–
17000 kPa	1072 ± 1.6	1069.6 ± 1.5	–	1062.7 ± 1.2	1059.4 ± 1.1	1055.6 ± 1	1051.3 ± 0.9	1046.9 ± 0.8	1042.2 ± 0.7
17500 kPa	1072.3 ± 1.6	1069.8 ± 1.5	1066.5 ± 1.4	–	1059.7 ± 1.1	1055.9 ± 1	1051.6 ± 0.9	1047.2 ± 0.8	1042.5 ± 0.7
17600 kPa	–	–	–	1063 ± 1.2	–	–	–	–	–
17900 kPa	1072.6 ± 1.6	–	–	–	–	1056.2 ± 1	–	–	–
18000 kPa	–	1070.2 ± 1.5	1066.7 ± 1.4	1063.3 ± 1.2	1059.9 ± 1.1	–	1051.8 ± 0.9	1047.5 ± 0.8	1042.7 ± 0.7
18400 kPa	–	–	–	–	–	–	–	1047.6 ± 0.8	–
18500 kPa	1072.9 ± 1.7	1070.5 ± 1.5	1067.1 ± 1.4	1063.5 ± 1.2	1060.2 ± 1.1	1056.5 ± 1	1052.1 ± 0.9	–	1043 ± 0.7
19000 kPa	1073.3 ± 1.7	1070.8 ± 1.5	1067.4 ± 1.4	1063.9 ± 1.3	1060.6 ± 1.1	1056.8 ± 1	1052.4 ± 0.9	1048 ± 0.8	1043.2 ± 0.7
19400 kPa	–	–	1067.7 ± 1.4	1064.1 ± 1.3	–	–	–	–	–
19500 kPa	1073.6 ± 1.7	1071.1 ± 1.6	–	–	1060.9 ± 1.2	1057 ± 1	1052.8 ± 0.9	1048.2 ± 0.8	1043.5 ± 0.7
20000 kPa	1073.9 ± 1.7	1071.4 ± 1.6	1068.2 ± 1.4	–	1061.2 ± 1.2	1057.5 ± 1.1	1053 ± 0.9	1048.7 ± 0.8	1043.8 ± 0.7
20100 kPa	–	–	–	1064.5 ± 1.3	–	–	–	–	–
